Earlier results in patent US7226619B1, “Material for controlling diversion of medications” (PharmoRx Inc., priority 2004, dated 2007).
Like-named read-outs stand apart in the source and are kept apart here.

Columns and labels:
[1] = biological target: 2D6 component of the P450 metabolic system (Homo sapiens, UniProt P10635)
[2] = oxymorphone vs parent oxycodone; per Richard B. Patt, American Pain Society Bulletin 6(4), 1996

2D6 component of the P450 metabolic system, sequence (P10635 whole entry): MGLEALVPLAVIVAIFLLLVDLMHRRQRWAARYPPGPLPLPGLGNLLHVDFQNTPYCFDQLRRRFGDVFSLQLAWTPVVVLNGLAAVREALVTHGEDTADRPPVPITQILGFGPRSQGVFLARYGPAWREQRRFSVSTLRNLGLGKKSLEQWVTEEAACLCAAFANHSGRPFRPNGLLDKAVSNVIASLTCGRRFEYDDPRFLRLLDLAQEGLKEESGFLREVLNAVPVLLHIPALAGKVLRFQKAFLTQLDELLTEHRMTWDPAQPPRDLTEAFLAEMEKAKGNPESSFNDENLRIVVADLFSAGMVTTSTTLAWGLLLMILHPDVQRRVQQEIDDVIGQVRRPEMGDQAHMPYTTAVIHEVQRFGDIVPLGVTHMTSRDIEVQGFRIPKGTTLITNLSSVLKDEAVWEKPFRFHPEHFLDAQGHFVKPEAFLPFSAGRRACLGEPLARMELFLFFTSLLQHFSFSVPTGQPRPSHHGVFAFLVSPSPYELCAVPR

COc1ccc(CN(CCN(C)C)c2ccccn2)cc1 [mepyramine]
inhibitor of 2D6 (in words) [1]: strong inhibitors

C=C[C@H]1C[N@@]2CC[C@H]1C[C@@H]2[C@@H](O)c1ccnc2ccc(OC)cc12 [quinidine]
inhibitor of 2D6 (in words) ([1]; qualitative statement, no data): strong inhibitors

CN/C(=N/CCSCc1nc[nH]c1C)NC#N [cimetidine]
inhibitor of 2D6 (in words) [1]: strong inhibitors

COC(=O)C1=CO[C@@H](C)[C@H]2CN3CCc4c([nH]c5ccccc45)[C@@H]3C[C@H]12 [ajmalicine]
inhibitor of 2D6 (in words) ([1]; qualitative statement, no data): strong inhibitors

CN1CC[C@]23c4c5ccc(O)c4O[C@H]2C(=O)CC[C@@]3(O)[C@H]1C5 [oxymorphone]
effectiveness as an agonist relative to oxycodone [2]: at least 10 times

Fc1ccc([C@@H]2CCNC[C@H]2COc2ccc3c(c2)OCO3)cc1 [paroxetine]
inhibitor of 2D6 (in words) ([1]; qualitative statement, no data): strong inhibitors

COC(=O)[C@H]1[C@H]2C[C@@H]3c4[nH]c5cc(OC)ccc5c4CCN3C[C@H]2C[C@@H](OC(=O)c2cc(OC)c(OC)c(OC)c2)[C@@H]1OC [reserpine]
inhibitor of 2D6 (in words) [1]: strong inhibitors
